In patent US8426587B2, “Haloallylamine inhibitors of SSAO/VAP-1 and uses therefor” (Pharmaxis Ltd., priority 2007, dated 2013) one finds IC50 and ED50 data, which are given here for 13 compounds.

Where a name gives a salt, the structure may show the parent alone. Read-outs that look alike come from different tables or passages of the source.

One experiment has as its target T1, Mouse SSAO/VAP-1 (Mus musculus, UniProt O70423).
T1 construct: Adipocytes were used as an SSAO source either as adherent cells or as a homogenate; endogenous in cells; host or cells: 3T3-L1 murine fibroblasts (ATCC) differentiated into adipocytes
T1 sequence (O70423 1-765): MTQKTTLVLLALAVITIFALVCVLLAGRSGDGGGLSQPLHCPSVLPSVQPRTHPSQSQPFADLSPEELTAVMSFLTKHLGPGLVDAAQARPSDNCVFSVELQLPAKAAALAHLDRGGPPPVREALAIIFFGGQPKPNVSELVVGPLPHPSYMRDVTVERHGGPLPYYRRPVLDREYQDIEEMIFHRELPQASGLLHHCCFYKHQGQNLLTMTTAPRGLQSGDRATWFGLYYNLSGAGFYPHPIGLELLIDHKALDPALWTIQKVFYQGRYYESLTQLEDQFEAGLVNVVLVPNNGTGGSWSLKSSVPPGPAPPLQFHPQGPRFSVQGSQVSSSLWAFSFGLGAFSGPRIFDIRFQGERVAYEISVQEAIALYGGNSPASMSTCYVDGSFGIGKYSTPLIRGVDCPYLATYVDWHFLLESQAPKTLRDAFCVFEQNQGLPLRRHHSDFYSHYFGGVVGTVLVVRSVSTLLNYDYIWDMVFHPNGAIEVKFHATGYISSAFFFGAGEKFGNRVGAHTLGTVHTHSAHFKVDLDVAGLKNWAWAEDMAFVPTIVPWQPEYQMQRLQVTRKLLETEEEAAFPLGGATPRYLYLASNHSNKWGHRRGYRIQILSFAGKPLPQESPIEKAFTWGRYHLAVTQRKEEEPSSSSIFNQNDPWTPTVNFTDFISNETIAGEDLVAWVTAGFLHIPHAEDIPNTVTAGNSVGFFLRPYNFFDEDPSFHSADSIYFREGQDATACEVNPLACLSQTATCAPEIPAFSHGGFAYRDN
In words: Inhibition of amine oxidase activity of mouse SSAO/VAP-1 (3T3-L1 adipocytes, Amplex Red). Format: biochemical. As to conditions: 3T3-L1 adipocyte SSAO, 30 min at 37° C. preincubation, 40 μM benzylamine. The text has this:
3T3-L1 Murine fibroblasts were purchased from the American Type Culture Collection (ATCC, Rockville, Md.). Dulbecco's Modified Eagle Medium (DMEM) and fetal calf serum (FCS), antibiotics and Amplex® Red were obtained from Invitrogen (Carlsbad, Calif.). Tissue culture plastics and black clear-bottom 96 well plates were from BD Falcon (Bedford, Mass.). Bicinchoninic acid (BCA) reagent was from Pierce (Rockford, Ill.). All other materials were obtained from Sigma (St. Louis, Mo.).
3T3-L1 Fibroblasts were cultured in DMEM supplemented with 10% heat-inactivated FCS, 2 mM L-glutamine, 100 U/L penicillin and 100 μg/L streptomycin at 37° C. in 5% CO2. For differentiation into adipocytes, fibroblasts were cultured in DMEM with FCS for 1 or 2 days postconfluence, after which the cells were cultured for 3 days in DMEM containing 10% FCS, 350 nM insulin, 0.5 mM 3-isobutyl-1-methylxanthine, 250 nM dexamethasone, and 400 nM biotin and for 3 days in DMEM containing 10% FCS and 350 nM insulin. After differentiation, adipocytes were maintained in DMEM supplemented with 10% FCS. Adipocytes were used for experiments 8 to 11 days after the onset of differentiation, and the medium was renewed 2 or 3 days prior to each experiment. For culturing in black clear-bottom 96-well plates, cells were seeded at a 1:1 cell surface ratio, and differentiation was initiated 4 days postseeding. Cells were used between days 6-12 post-differentiation and between passages 7 and 20. Adipocytes were used as an SSAO source either as adherent cells or as a homogenate.
To prepare homogenate, 10 cm dishes of adipocytes were washed with HES buffer (20 mM HEPES, 1 mM EDTA, 250 mM sucrose, pH 7.4) and scraped in HES buffer containing 10 μg/mL leupeptin, 10 μM pepstatin and 1 mM PMSF. Cells were lysed by passage through a 23 G needle followed by passage through a 27 G needle. The lysate was spun at 500 g for 5 min and fat was removed. Protein concentration of the supernatant was measured using a BCA assay according to the manufacturer's instructions. The homogenate was stored at −80° C. until needed.
(§1) To measure the SSAO activity, adipocyte homogenate (0.5 mg/mL) or adipocytes (adhering cells) containing 0.5 mM pargyline, or purified human SSAO was incubated in 0.1 M sodium phosphate buffer pH 7.4 with varying concentrations of test compounds for 30 min at 37° C. The homogenate was then incubated at 37° C. with 60 μM Amplex® Red, 0.75 U/mL HRP and 40 μM benzylamine (mouse SSAO) or 300 μM benzylamine (human SSAO) and the formation of resorufin was measured (excitation range 530-560 nm and emission at 590 nm) every 10 min in either a Tecan Infinite 200 or a BMG plate reader. The IC50 values were estimated using Graphpad Prism software. The IC50 is an estimation of the concentration of the test compound to inhibit the amine oxidase activity of SSAO/VAP-1 by 50%. The IC50 values of certain invention compounds are included in Table 1.

In the next experiment the target is T2, Human SSAO/VAP-1 (Homo sapiens, UniProt Q16853).
T2 sequence (Q16853 1-763): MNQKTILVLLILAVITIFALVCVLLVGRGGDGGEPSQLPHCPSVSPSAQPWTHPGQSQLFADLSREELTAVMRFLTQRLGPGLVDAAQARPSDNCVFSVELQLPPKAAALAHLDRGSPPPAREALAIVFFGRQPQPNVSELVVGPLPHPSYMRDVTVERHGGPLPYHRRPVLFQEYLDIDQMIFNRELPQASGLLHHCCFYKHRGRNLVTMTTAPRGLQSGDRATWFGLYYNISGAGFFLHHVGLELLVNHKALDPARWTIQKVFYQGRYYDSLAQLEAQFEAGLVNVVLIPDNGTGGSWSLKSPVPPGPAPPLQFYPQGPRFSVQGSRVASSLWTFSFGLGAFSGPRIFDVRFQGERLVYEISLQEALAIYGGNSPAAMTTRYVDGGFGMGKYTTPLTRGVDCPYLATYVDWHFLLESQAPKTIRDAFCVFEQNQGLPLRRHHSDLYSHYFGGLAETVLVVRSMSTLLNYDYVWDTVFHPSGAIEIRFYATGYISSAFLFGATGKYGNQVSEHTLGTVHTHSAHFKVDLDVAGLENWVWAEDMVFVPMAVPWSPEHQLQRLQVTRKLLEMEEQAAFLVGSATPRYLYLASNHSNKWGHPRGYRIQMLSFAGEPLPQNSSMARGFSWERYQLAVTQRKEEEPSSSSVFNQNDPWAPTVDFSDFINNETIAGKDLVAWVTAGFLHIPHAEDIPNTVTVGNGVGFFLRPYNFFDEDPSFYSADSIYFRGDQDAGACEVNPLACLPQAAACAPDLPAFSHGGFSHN
In words: Inhibition of amine oxidase activity of purified human SSAO/VAP-1 (Amplex Red). The experiment is classed as biochemical. As to conditions: purified human SSAO, 30 min at 37° C. preincubation, 300 μM benzylamine. The procedure: as §1

Another experiment concerns the target T3, Human MAO-B (Homo sapiens, UniProt P27338).
T3 sequence (P27338 1-520): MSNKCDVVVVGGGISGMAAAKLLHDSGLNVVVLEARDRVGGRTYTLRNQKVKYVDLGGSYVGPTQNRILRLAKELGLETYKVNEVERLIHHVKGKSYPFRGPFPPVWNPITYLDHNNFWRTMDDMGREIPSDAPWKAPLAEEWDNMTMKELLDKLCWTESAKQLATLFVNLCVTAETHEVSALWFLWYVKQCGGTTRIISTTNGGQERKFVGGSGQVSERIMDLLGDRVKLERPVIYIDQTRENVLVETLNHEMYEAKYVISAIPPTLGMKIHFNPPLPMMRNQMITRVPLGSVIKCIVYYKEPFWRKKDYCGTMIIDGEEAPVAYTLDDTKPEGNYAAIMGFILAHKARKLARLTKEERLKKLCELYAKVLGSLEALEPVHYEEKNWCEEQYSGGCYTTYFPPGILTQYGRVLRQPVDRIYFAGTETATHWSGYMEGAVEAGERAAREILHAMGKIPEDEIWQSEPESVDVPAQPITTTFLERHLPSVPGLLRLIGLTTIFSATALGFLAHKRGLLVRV
In words: Inhibition of recombinant MAO-B (Amplex Red). The experiment is classed as biochemical. As to conditions: 30 min at 37° C. preincubation, 50 μM benzylamine. The procedure:
Recombinant MAO-B was incubated in 0.1 M sodium phosphate buffer pH 7.4 with varying concentration of test compounds for 30 min at 37° C. The homogenate/protein was then incubated at 37° C. with […] Amplex® Red, 0.75 U/ml HRP and 40 μM benzylamine (mouse SSAO), 300 μM benzylamine (human SSAO), 100 μM tyramine (MAO-A) or 50 μM benzylamine (MAO-B) and the formation of resorufin was measured (excitation range 530-560 nm and emission at 590 nm) every 5 min in either a Tecan Infinite 200 or a BMG Fluorostar Optima platereader. IC50 were estimated using Graphpad Prism software.

Another experiment has as its target T4, SSAO/VAP-1 (Mus musculus, UniProt O70423).
T4 construct: the genital fat was excised and frozen; The tissue was homogenized; from tissue; host or cells: genital fat of BALB/C mice
T4 sequence (O70423 1-765): T1 sequence (O70423 1-765)
Put plainly: In vivo inhibition of SSAO/VAP-1 activity in mouse genital fat. More on the design: species or system BALB/C mice. As to conditions: ip. The procedure: In vivo inhibition was assessed in mouse genital fat, a tissue with high SSAO/VAP-1 expression. 10 BALB/C mice (5 males and 5 females) were administered 0 mg/kg, 10 mg/kg, 30 mg/kg or 100 mg/kg SSAO/VAP-1 inhibitor by intraperitoneal injection. Two hours after administration the mice were sacrificed and the genital fat was excised and frozen. The tissue was homogenized in 0.01 M sodium phosphate buffer pH 7.4 (10 mL/g) and used to measure SSAO activity using Amplex® Red. ED50 was estimated Using Graphpad Prism software.

Setting [1] is: female BALB/C mice, intraperitoneal, genital fat SSAO activity two hours after administration, read-out: Female Mice ED50 [ip].
The mark [2] stands for this setting: male BALB/C mice, intraperitoneal, genital fat SSAO activity two hours after administration, read-out: Male Mice ED50 [ip].
[3] abbreviates: read-out: Female Mice ED50 [ip].

As usually defined, the IC50 is the concentration that inhibits the measured activity by half. As to `NC/C=C(/F)COc1cccc(C(F)(F)F)c1` [(E)-3-Fluoro-4-(3-(trifluoromethyl)phenoxy)but-2-en-1-amine hydrochloride], the values for the IC50 on Mouse SSAO/VAP-1, on Human SSAO/VAP-1 and on Human MAO-B were under 100 µM, under 1 µM and under 1 µM, respectively.
The ED50 is the midpoint of the dose-response relation. Take `CC(C)S(=O)(=O)c1ccc(OC/C(F)=C\CN)cc1.Cl` [(E)-3-Fluoro-4-(4-(isopropylsulfonyl)phenoxy)but-2-en-1-amine hydrochloride]: the ED50 on SSAO/VAP-1 (setting [1]) and on SSAO/VAP-1 (setting [2]) was under 150 mg/kg each time.
Take `NC/C=C(/F)COc1ccc(S(=O)(=O)N2CCOCC2)cc1` [(E)-3-Fluoro-4-(4-(morpholinosulfonyl)phenoxy)but-2-en-1-amine hydrochloride]: the results for the IC50 at Mouse SSAO/VAP-1, against Human SSAO/VAP-1 and on Human MAO-B were under 10 µM, under 1 µM and under 10 µM, respectively.
Turning to `NC/C=C(/F)COc1ccc([N+](=O)[O-])cc1` [(E)-3-Fluoro-4-(4-nitrophenoxy)but-2-en-1-amine hydrochloride], the IC50 on Mouse SSAO/VAP-1 is under 10 µM; at Human SSAO/VAP-1 it was under 1 µM; at Human MAO-B, under 1 µM.
Regarding `NC/C=C(/F)COc1ccccc1` [(E)-3-fluoro-4-phenoxybut-2-en-1-amine hydrochloride], the concentration for half-maximal inhibition (IC50) at Mouse SSAO/VAP-1 is under 10 µM; against Human SSAO/VAP-1 it was under 1 µM; on Human MAO-B, under 1 µM.
In the case of `NC/C=C(/F)COc1ccc(Cl)cc1Cl` [(E)-4-(2,4-Dichlorophenoxy)-3-fluorobut-2-en-1-amine hydrochloride], the IC50 at Mouse SSAO/VAP-1 is under 10 µM; against Human SSAO/VAP-1 it was under 1 µM; at Human MAO-B it was under 1 µM.
As to `Cl.NC/C=C(/F)COc1ccc(S(=O)(=O)Cc2ccccc2)cc1` [(E)-4-(4-(Benzylsulfonyl)phenoxy)-3-fluorobut-2-en-1-amine hydrochloride], the values for the ED50 at SSAO/VAP-1 (setting [1]) and on SSAO/VAP-1 (setting [2]) were under 300 mg/kg and under 50 mg/kg, respectively.
For `CC(C)N(C(=O)c1ccc(OC/C(F)=C\CN)cc1)C(C)C` [(E)-4-(4-Amino-2-fluorobut-2-enyloxy)-N,N-diisopropylbenzamide hydrochloride], the IC50 is under 100 µM against Mouse SSAO/VAP-1, under 1 µM at Human SSAO/VAP-1 and under 100 µM at Human MAO-B.
As for `Cl.NC/C=C(/F)COc1ccc(C(=O)NC2CCCC2)cc1` [(E)-4-(4-Amino-2-fluorobut-2-enyloxy)-N-cyclopentylbenzamide hydrochloride], the ED50 at SSAO/VAP-1 (setting [1]) and at SSAO/VAP-1 (setting [2]) was under 50 mg/kg in each case.
In the case of `NC/C=C(\Cl)Cc1cc(F)cc(F)c1` [(Z)-3-Chloro-4-(3,5-difluorophenyl)but-2-en-1-amine hydrochloride, reference compound], the IC50 was under 1 µM on Mouse SSAO/VAP-1 and under 10 µM against Human SSAO/VAP-1.
On the same counts, the results for `NC/C=C(\Cl)CCc1ccccc1` [(Z)-3-Chloro-5-phenylpent-2-en-1-amine hydrochloride, reference compound] are under 10 µM and under 10 µM.
Consider `C[C@@H](NC(=O)c1ccc(OC/C(F)=C\CN)cc1)c1ccccc1.Cl` [R-(E)-4-(4-Amino-2-fluorobut-2-enyloxy)-N-(1-phenylethyl)benzamide hydrochloride], for which the ED50 on SSAO/VAP-1 (setting [3]) is under 150 mg/kg; at SSAO/VAP-1 (read-out: Male Mice ED50 [ip]), under 50 mg/kg.
For `C[C@H](NC(=O)c1ccc(OC/C(F)=C\CN)cc1)c1ccccc1.Cl` [S-(E)-4-(4-Amino-2-fluorobut-2-enyloxy)-N-(1-phenylethyl)benzamide hydrochloride], the median effective dose (ED50) at SSAO/VAP-1 (setting [3]) and at SSAO/VAP-1 (read-out: Male Mice ED50 [ip]) was under 50 mg/kg each time.
